Biological target: T1, human 5-HT7b (Homo sapiens, UniProt P34969)
T1 construct: expressed in transfected cells
Assay: 5-HT7R binding ([3H]-5-CT), HEK293
Details: read-out: serotonin 5-HT7 % inhibition at 1 microM
Protocol: 3. Selectivity screen of PZ-1922
For membrane preparation,
EDTA and 1 mM dithiothreitol.
The composition of the assay buffers was
reader (PerkinElmer, USA).
The results were expressed as the %
www.eurofinsdiscovery.com.

T1 sequence (P34969 1-432 limits assumed): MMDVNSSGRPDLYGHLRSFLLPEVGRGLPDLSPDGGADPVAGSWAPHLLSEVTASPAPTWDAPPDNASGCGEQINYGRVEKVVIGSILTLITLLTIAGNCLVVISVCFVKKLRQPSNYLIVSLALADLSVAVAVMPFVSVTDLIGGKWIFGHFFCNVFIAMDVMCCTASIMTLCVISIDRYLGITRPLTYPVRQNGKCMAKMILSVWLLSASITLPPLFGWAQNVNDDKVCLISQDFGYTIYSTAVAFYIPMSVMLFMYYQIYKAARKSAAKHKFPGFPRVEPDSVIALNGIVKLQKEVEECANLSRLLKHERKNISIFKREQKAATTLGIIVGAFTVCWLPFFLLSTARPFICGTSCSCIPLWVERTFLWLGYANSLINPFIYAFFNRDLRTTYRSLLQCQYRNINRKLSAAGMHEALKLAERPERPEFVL

Molecule `Cl.Clc1cccc(Cn2ccc3c(N4CCNCC4)nc4ccccc4c32)c1` [PZ-1922, 1-(3-Chlorobenzyl)-4-(piperazin-1-yl)-1H-pyrrolo[3,2-c]quinoline Hydrochloride] has an inhibition at 1 µM of 2%.

Reference: article PMC10641814 (Journal of Medicinal Chemistry, 2023)
